{"source": "patent US10309966B2", "about": "“Personalized therapy of inflammation-associated cancer using methods of assessing the susceptibility of a subject to the treatment with EGFR inhibitors/antagonists” (Medizinische Universität Wien, priority 2014, dated 2019)", "key": {"[1]": {"system": "IL-6 release by cultured Kupffer cells", "assay": "EGF-induced IL-6 release by cultured Kupffer cells (ELISA)", "type": "cell-based, mouse", "method": "(§1) Protocols for ELISA have been previously described (Natarajan, A. et al., 2007; Lichtenberger, B. M. et al., 2010; Sibilia, M. et al., 2000; Drobits, B. et al., 2012). ELISA for IL-6, IL17A, IL22, IL23 (eBioscience), amphiregulin (R&D Systems), CCL2, IL-1β and IL-1α (BD Biosciences-Pharmigen) were performed following the manufacturer's instructions. MTT assay (EZ4U, Biomedica) was performed to quantify the number of viable Kupffer cells in the wells. The cytokine value was normalized to the number of viable Kupffer cells.\nHepatocytes and Kupffer cells were isolated after liver perfusion according to previously published protocols (Smedsrod, B. et al., 1985) and either directly used for further analysis or cultured as follows. Hepatocytes were plated onto collagen pre-coated cell culture dishes and cultured in HepatoZyme-SFM (Gibco) supplemented with 2 mM glutamine and 1% penicillin-streptomycin (P/S). Hepatocytes were either treated with the indicated amounts of DEN for 24 hours or with 10 ng/ml TNFα (eBioscience) in the presence of cycloheximide (100 μg/ml, Sigma) for 12 hours to study the hepatoprotective role of EGFR. Kupffer cells were isolated and plated in RPMI 1640 with 10% FCS, 2 mM glutamine, 1% P/S for at least 24 hours followed by overnight starvation (in 0.5% FCS containing medium for cytokine induction; serum-free medium for signaling experiments). Kupffer cells were stimulated with IL-1β (10 ng/ml, eBioscience), EGF (10 ng/ml, Lonza), polylC (20 μg/ml, GE Healthcare), imiquimod (12 μg/ml, Invivogen) and LPS (10 ng/ml, Invivogen) for the time period indicated. […] Since the number of Kupffer cells which can be recovered from one mouse is very low, it was technically impossible to perform Western Blot analysis for all indicated signaling molecules on one single batch of Kupffer cells. Usually Kupffer cells from 2 livers of the same genotype were pooled together to obtain around 20-30 μg of protein lysate."}, "[2]": {"system": "IL-6 secretion by isolated Kupffer cells", "assay": "IL-1β-induced IL-6 production/secretion by isolated Kupffer cells (ELISA, qRT-PCR)", "type": "cell-based, mouse", "conditions": "for IL-1β-induced release of IL-6: EGFR-expressing Kupffer cells, 24 hours after IL-1β, inhibitor pre-incubation, FIG. 10C", "method": "as §1, with “ELISA” for “Protocols for ELISA have been previously described (Natarajan, A. et al., 2007; Lichtenberger, B. M. et al., 2010; Sibilia, M. et al., 2000; Drobits, B. et al., 2012). ELISA”\n(§2) Hepatocytes were plated onto collagen pre-coated cell culture dishes and cultured in HepatoZyme-SFM (Gibco) supplemented with 2 mM glutamine and 1% penicillin-streptomycin (P/S). Hepatocytes were either treated with the indicated amounts of DEN for 24 hours or with 10 ng/ml TNFα (eBioscience) in the presence of cycloheximide (100 μg/ml, Sigma) for 12 hours to study the hepatoprotective role of EGFR. […] Since the number of Kupffer cells which can be recovered from one mouse is very low, it was technically impossible to perform Western Blot analysis for all indicated signaling molecules on one single batch of Kupffer cells. Usually Kupffer cells from 2 livers of the same genotype were pooled together to obtain around 20-30 μg of protein lysate."}, "[3]": {"system": "AR release by cultured Kupffer cells", "assay": "AR (amphiregulin) release into supernatant of IL-1β stimulated Kupffer cells (ELISA)", "type": "cell-based, mouse", "conditions": "24 hours after IL-1β stimulation in presence of inhibitor; FIG. 10B", "method": "as §1\nHepatocytes and Kupffer cells were isolated after liver perfusion according to previously published protocols (Smedsrod, B. et al., 1985) and either directly used for further analysis or cultured as follows. Hepatocytes were plated onto collagen pre-coated cell culture dishes and cultured in HepatoZyme-SFM (Gibco) supplemented with 2 mM glutamine and 1% penicillin-streptomycin (P/S). Hepatocytes were either treated with the indicated amounts of DEN for 24 hours or with 10 ng/ml TNFα (eBioscience) in the presence of cycloheximide (100 μg/ml, Sigma) for 12 hours to study the hepatoprotective role of EGFR. Kupffer cells were isolated and plated in RPMI 1640 with 10% FCS, 2 mM glutamine, 1% P/S for at least 24 hours followed by overnight starvation (in 0.5% FCS containing medium for cytokine induction; serum-free medium for signaling experiments). […]"}, "[4]": {"system": "human HCC cells", "conditions": "xenograft models with human HCC cells; W. Sieghart, unpublished results; cited from earlier work"}, "[5]": {"system": "advanced stage HCC patients", "conditions": "cited from earlier work"}, "[6]": {"system": "patients with advanced non-small-cell lung cancer", "conditions": "meta-analysis; cited from earlier work"}, "[7]": {"system": "ulcerative colitis patients", "conditions": "EGF enemas; cited from earlier work"}, "[8]": {"system": "EGFR", "assay": "EGFR phosphorylation in isolated Kupffer cells (Western blot)", "type": "cell-based, mouse", "conditions": "EGFR expressing Kupffer cells; IL-1β as stimulus; FIGS. 10E, 10F", "method": "as §2"}, "[9]": {"system": "DSS colitis in Adam17^ex/ex mice", "conditions": "exogenous supplementation; cited from earlier work"}}}
{"compound": "C[S+]([O-])c1ccc(-c2nc(-c3ccncc3)c(-c3ccc(F)cc3)[nH]2)cc1", "note": "(centres unmarked) [SB203580, reference compound]", "values": [{"measurement": "EGF-induced IL-6 production", "setting": "[1]; EGFR-positive liver macrophages, 24 hours after EGF, inhibitor pre-incubation, FIG. 10D", "value": "inhibited"}, {"measurement": "IL-1β-induced release of IL-6", "setting": "[2]", "value": "inhibited"}]}
{"compound": "CC(C)C[C@H](CC(=O)NO)C(=O)N[C@@H](Cc1ccc2ccccc2c1)C(=O)N[C@@H](C)C(=O)NCCN", "note": "[TAPI-1, reference compound]", "values": [{"measurement": "AR release into the culture medium", "setting": "[3]", "value": "did not occur"}, {"measurement": "IL-1β-induced release of IL-6", "setting": "[2]", "value": "blocked"}]}
{"compound": "C#Cc1cccc(Nc2ncnc3cc(OCCOC)c(OCCOC)cc23)c1", "note": "[erlotinib]", "values": [{"measurement": "reduction of HCC burden", "setting": "[4]", "value": "ineffective"}, {"measurement": "synergistic effect of combination therapy with sorafenib", "setting": "[4]", "value": "did not show any synergistic effect"}, {"measurement": "effects in phase 2 trials (disease stabilization at 6 months)", "setting": "[5]; HCC, phase 2", "value": "moderate effects"}, {"measurement": "improvement in survival through addition of erlotinib", "setting": "[5]; SEARCH trial, phase III, advanced stage HCC-patients", "value": "unable to show any improvement in survival"}, {"measurement": "drug toxicity (diarrhea)", "setting": "[6]", "value": "increased drug toxicity in the form of diarrhea"}]}
{"compound": "COc1cc2ncnc(Nc3ccc(F)c(Cl)c3)c2cc1OCCCN1CCOCC1", "note": "[gefitinib]", "values": [{"measurement": "clinical results in advanced stage HCC patients", "setting": "[5]; advanced stage HCC", "value": "disappointing clinical results"}, {"measurement": "drug toxicity (diarrhea)", "setting": "[6]", "value": "increased drug toxicity in the form of diarrhea"}]}
{"compound": "EGF: EGFR ligand epidermal growth factor (NSDSECPLSHDGYCLHDGVCMYIEALDKYACNCVVGYIGERCQYRDLKWWELR; UniProt P01133 971-1023, looked up)", "values": [{"measurement": "restoration of IL-6 production in MyD88−/− Kupffer cells", "setting": "[1]; EGF as stimulus, FIG. 10D", "value": "fully restore"}, {"measurement": "induction of IL-6 release", "setting": "[1]; EGFR expressing Kupffer cells, EGF as stimulus, FIGS. 10C, 10D", "value": "sufficient and equally as potent as IL-1β"}, {"measurement": "disease remission", "setting": "[7]", "value": "induced disease remission"}]}
{"compound": "IL-1β: cytokine used to stimulate Kupffer cells", "values": [{"measurement": "induction of IL-6 transcripts and IL-6 protein in the culture medium", "setting": "[2]; Kupffer cells expressing EGFR, IL-1β as stimulus, FIGS. 8E, 8F", "value": "induced"}, {"measurement": "induction of EGFR phosphorylation", "setting": "[8]", "value": "able to induce"}]}
{"compound": "TGFα: EGFR ligand transforming growth factor alpha, exogenous supplementation", "values": [{"measurement": "rescue of colitis symptoms", "setting": "[9]", "value": "partial rescue"}]}
